Activity calls are given as the source filed them. The calls are words filed in the database; no cut-off is given here.
Each compound was assayed against T1, E3 ubiquitin-protein ligase Mdm2 (Homo sapiens, UniProt Q00987) (assay: Inhibition of p53-HDM2 interaction).
Target sequence in this assay (Q00987 whole entry): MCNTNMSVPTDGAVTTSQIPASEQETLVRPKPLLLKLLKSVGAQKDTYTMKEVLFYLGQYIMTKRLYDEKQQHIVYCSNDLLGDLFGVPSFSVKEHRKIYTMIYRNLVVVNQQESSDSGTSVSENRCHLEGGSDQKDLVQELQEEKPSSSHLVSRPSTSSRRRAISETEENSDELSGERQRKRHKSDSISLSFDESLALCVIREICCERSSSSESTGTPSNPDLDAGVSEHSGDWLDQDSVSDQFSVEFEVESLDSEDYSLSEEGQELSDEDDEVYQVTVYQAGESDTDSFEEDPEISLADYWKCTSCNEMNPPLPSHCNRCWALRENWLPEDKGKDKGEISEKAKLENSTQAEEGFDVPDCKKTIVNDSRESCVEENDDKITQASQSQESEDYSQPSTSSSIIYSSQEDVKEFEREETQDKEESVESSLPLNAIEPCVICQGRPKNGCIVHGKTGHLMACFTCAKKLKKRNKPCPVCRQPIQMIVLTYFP

Row | Structure (SMILES) | IC50
1 | C=C(C(=O)O)C(CCCCCC)C(=O)O (stereo unspecified) [HEXYLITACONIC ACID] | 233 µM

The compounds below were run against T1, E3 ubiquitin-protein ligase Mdm2 (assay: Inhibition of p53-HDM2 interaction at 50 ug/ml).
Target sequence in this assay (Q00987 whole entry, looked up): as the sequence (Q00987 whole entry) above

Row | Structure (SMILES) | Activity
2 | O=C(O)CCC(=O)O | inactive
3 | CCCCCCC(C(=O)O)C(C)C(=O)O (stereo unspecified) | inactive
4 | C=C(CC(=O)O)C(=O)O | inactive
5 | CCCCCCC(C(=O)OC)C(C)C(=O)O (stereo unspecified) | inactive
6 | C=C(C(=O)O)C(CCCCCC)C(=O)OC (stereo unspecified) | inactive

From ChEMBL document CHEMBL1148535, “Hexylitaconic acid: a new inhibitor of p53-HDM2 interaction isolated from a marine-derived fungus, Arthrinium sp” (Bioorg Med Chem Lett, 2006)
